In brackets after ≈: the same amount, converted by molar mass.
Legend:
[1] = system: Trichophyton rubrum; experiment: MycoTOX (Tr) antifungal bioassay; format: cell-based
Experimental: MycoTOX (alternatively referred to herein as Tr) is a non-chromogenic bioassay used to detect activity against filamentous fungal pathogens of plants and animals. The bioassay features a solid phase agar base into which the test compound has been incorporated. As the growth patterns of filamentous fungi are readily apparent on the agar surface the extent of mycelial growth, sporulation (if relevant to the species under investigation) and colour changes with maturation are measured.
MycoTOX, involves a fungus (spore suspension or mycelial fragments) applied to the surface of an agar matrix containing the test chemical and allowed to grow for a period of up to a week (depending on species). The assay was monitored at two discrete times to identify key development phases in the life cycle (for example mycelial growth and extent of sporulation) and the active wells noted. The monitoring times were dependent on the fungal species under investigation.
The MycoTOX assays were carried out using Trichophyton rubrum.

[2] = system: NS1 murine myeloma cell line; experiment: CyTOX (Cy) cytotoxicity bioassay; format: cell-based; settings: for Cy LD99: weight of chemical in last well with activity, real value may be lower
Text: CyTOX (alternatively referred to herein as Cy) is a microtitre plate bioassay use to identify potential antitumor actives. CyTOX is a chromogenic bioassay with broad application to a wide range of tumor and non-tumor cell lines. […] CyTOX features a liquid media into which the test compound has been incorporated together with a novel chromogen. As the cells grow and divide the chromogen is metabolised from purple in a single step process to a colourless metabolite. CyTOX is routinely undertaken using NS1 murine myeloma cell line as a guide to mammalian cell toxicity. Briefly, in CyTOX the cells were applied to the media containing the test chemical and allowed to grow for 72 hours. The assay was monitored at 24, 48 and 72 hours and the active wells identified.

[3] = system: melanoma MM96L; experiment: Additional in vitro activity: antitumor activity, MM96L; format: cell-based, human; settings: concentration with activity
[4] = system: MCF-7 breast cancer; experiment: Cell growth inhibition (Table 22), MCF7; format: cell-based; settings: Homo sapiens, read-out: IC50 (drug dose which inhibits cell growth by 50%) MCF7
Experimental: (§1) The isolated compounds were tested against a number of human and non-human cancer cell lines. The human tumor cell lines were: MCF-7, MDA-MB-231 and T47D, breast cancer; DU145 and PC3, prostate cancer; CI80-13S, ovarian cancer; MM96L, D04, SkMel5, MM418c5 melanoma; HT29, colon cancer; K562 and HL60, leukemia. Mouse cell lines were the B16 mouse melanoma and LK2 UV-induced squamous cell carcinoma (SCC). Neonatal foreskin fibroblasts (NFF) were used as normal control cells. Cells were cultured at 37° C. in 5% carbon dioxide/air, in RPMI 1640 medium containing 10% fetal calf serum.

[5] = system: PC3 prostate cancer; experiment: Cell growth inhibition (Table 22), PC3; format: cell-based; settings: Homo sapiens, PC-3; read-out: IC50 (drug dose which inhibits cell growth by 50%) PC3
Experimental: as §1

[6] = system: B16 mouse melanoma; experiment: Cell growth inhibition (Table 22), B16; format: cell-based; settings: read-out: IC50 (drug dose which inhibits cell growth by 50%) B16
Experimental: as §1

[7] = system: EBV-infected peripheral blood mononuclear cells (PBMCs); experiment: EBV transformation of donor PBMCs (anti-inflammatory screening); format: cell-based, human; settings: 2 μg/mL, 28 days, visual and 3H-T cpm
Experimental: Three main assays were performed; transformation, regression and mixed lymphocyte reactions (MLRs). Reference is made to Moss et al., (D J, Rickinson A B, Pope J H: Long-term T-cell-mediated immunity to Epstein-Barr virus in man. III. Activation of cytotoxic T cells in virus-infected leukocyte cultures. Int J Cancer 1979, 23:618-625). Complete regression of virus-induced transformation in cultures of seropositive donor leukocytes
Both regression and MLR quantitative experimental results were obtained visually and by the addition of [methyl-^3H]thymidine (3H-T). 3H-T is a nucleoside analogue and is incorporated into the DNA of proliferating cells. If cells are proliferating, the counts/minute (cpm) is high; if cells are dead, the cpm is low.
EBV seronegative and seropositive donors' peripheral blood mononuclear cells (PBMCs) were infected with EBV. […]
The cells were then incubated for 28 days when results were determined visually and by the addition of 3H-T to obtain quantitative data.
The individual transformation summaries were determined by visual data and 3H-T cpm data from EBV seronegative_donors' peripheral blood mononuclear cells (PBMC). […] The 3H-T cpm cut-off values were determined for each individual assay by this control value, plus and minus a five (5)-fold difference. […]

[8] = system: human peripheral blood lymphocytes (PBMC) with gamma-irradiated LCL; experiment: Inhibition of the mixed lymphocyte reaction (MLR); format: cell-based; settings: [3H]-thymidine on Day 4
Experimental: Gamma-irradiated lymphoblastoid cells (LCL, Esptein-Barr virus-transformed B-cells; 17,000) were added to human peripheral blood lymphocytes (PBMC; 50,000 per microtitre well), then the drug, incubated at 37 C as above and labeled with [3H]-thymidine on Day 4. Cells were lysed and washed onto glass fibre mats for scintillation counting. The same drug concentrations were tested for direct toxicity by assay on control LCL (10,000 cells/well).
The MLR measures the ability of normal human T-cells to undergo a proliferative response to allo antigens expressed by a non-proliferating B-cell line. […] This was not due to general toxicity because the growth of control LCLs was unaffected.

[9] = system: several cell lines; experiment: Morphological and cell cycle effects (flow cytometry); format: cell-based; settings: 24 hour treatment, 1 μg/mL
Text: This tends to rule out targets such as PKC (prototype compound PMA), DNA damage (prototype cisplatin), kinases (prototype staurosporine), mitochondria or the plasma membrane (cell lysis).
This was not accompanied, however, by the typical rounded morphology of cells treated with tubulin ligands.

[10] = system: B16 melanoma; experiment: Inhibition of B16 melanoma growth in C57BL/6 mice; format: in vivo
Experimental: After a preliminary experiment to determine the MTD in mice, C57BL/6 mice were implanted with B16 melanoma cells (0.5 million cells per site, 2 sites per mouse sc, 3 mice/group) and treatment commenced 24 hours later. For this initial study, EBI-23 was prepared by diluting an ethanol solution into saline, such that the final ethanol level was 2%. The cloudy solution thus obtained was injected intraperitoneally into mice every day for 7 days. Tumor size and body weight were measured over time.

[11] = system: a human tumor cell line; experiment: Preliminary screen of growth-inhibiting activity of derivatised EBI-23, EBI-24, EBI-25; format: cell-based; settings: growth inhibition
Experimental: A series of derivatisation reactions were conducted on 1 mg amounts of EBI-23, EBI-24, and EBI-25. Mass spectra were run to confirm the nature of the derivatives but the product(s) weren't purified for this preliminary screen of growth-inhibiting activity in a human tumor cell line. The results were compared on the assumption that no losses occurred during derivatisation.

SMILES: CCCCCCCCCCCCCC(O)CC1CC(O)CC2(CC3OC(=O)C=CC3O2)O1 (stereo not shown) [EBI-23]
- Tr Titre [1]: 0
- Cy Titre [2]: 256
- Cy LD99 ([2]; listed as EB77.LA4.92-100): 0.24 µg/mL
- Cy LD99 ([2]; listed as EB116.LA3.31-27/32): 0.78 µg/mL
- Cy LD99 ([2]; listed as EB116.LA3.60-40/42): 0.78 µg/mL
- antitumor activity against melanoma MM96L at [3]: 1 µg/mL
- IC50 [4]: 0.5 µg/mL (≈ 1.1 µM)
- IC50 [5]: 1 µg/mL (≈ 2.21 µM)
- IC50 [6]: 0.5 µg/mL (≈ 1.1 µM)
- inhibition of transformation [7]: strong inhibition
- concentration found to inhibit the MLR [8]: 1 µg/mL
- DNA fragments (apoptosis) [9]: No DNA fragments were detected
- cell cycle effect by flow cytometry [9]: variable degree of G2/M arrest
- B16 growth ([10]; 80 μg (per mouse per day) intraperitoneally): measurable response
- B16 growth ([10]; 250 μg/mouse/day intraperitoneally): significant reduction
- body weight ([10]; higher dose (250 μg/mouse/day)): some weight loss
- tolerability of regime ([10]; intraperitoneal daily dosing, C57BL/6 mice): tolerated this regime well

SMILES: CC/C=C/CCCCCCCCCCCC(O)CC1CC(O)CC2(CC3OC(=O)C=CC3O2)O1 (stereo not shown) [EBI-24]
- Cy LD99 [2]: 0.78 µg/mL
- antitumor activity against melanoma MM96L at [3]: 3 µg/mL
- IC50 [4]: 0.2 µg/mL (≈ 0.418 µM)
- inhibition of transformation [7]: strong inhibition
- fold less potent than EBI-23 [11]: 10 fold

From US8921414B2, “Spiroketals” (EcoBiotics Ltd, priority 2005, dated 2014)
